# Laboratory results published in article PMC9486951, “Tetramate Derivatives by Chemoselective Dieckmann Ring Closure of threo-Phenylserines and Their Antibacterial Activity” (The Journal of Organic Chemistry, 2022).
# Where two headings read alike, the source gives them in different places.
# Tests used:
# [1] = test system: methicillin-resistant Staphylococcus aureus (MRSA); test: MIC determination by broth dilution assay against MRSA; assay type: cell-based
# Experimental: (§1) With access to these derivatives routinely available, an assessment of their antibacterial activity was made by measuring minimum inhibitory concentration (MIC) values (Table S6) against two example organisms, methicillin-resistant Staphylococcus aureus (MRSA) and E. coli. […] By contrast, a more polar substituent at the C7-position (pyran 12t) compromised the antibacterial activity (125 μg/mL). […] Compound 13b had the same activity as 12g at 1.00 μg/mL. Overall, increasing lipophilicity corresponded to higher potency against MRSA. […]
# (§2) Screening of compounds were performed by Oxford Antibiotic Group, Austria. For MIC determination by broth dilution assay, the samples were tested in a primary 96 well plates screening assay, in duplicate. The compounds were diluted in Mueller Hinton Broth (MHB) for bacterial screening to a stock solution of 1000 µg/mL, serial diluted and overlaid with a microbe solution in a concentration of 10^4 CFU/ml. […]
# Hela cell line = test: Cytotoxicity assay (Alamar blue), Hela; assay type: cell-based, human; settings: for EC50: Homo sapiens, HeLa, read-out: cell lines EC50, Hela
# Experimental: (§3) The selectivity of these compounds for activity against prokaryotic cells over mammalian cells was analyzed by considering their cytotoxicity against Hela, heK-293, CaCo, and MDCK […] cell lines, allowing estimation of the therapeutic ratio [EC50Hela cell line/MIC(S. aureus)] (Table 3). […]
# as §2, with “CFU/ml. The plates were incubated for” for “CFU/ml.”
# (§4) For cytotoxicity testing, the synthesized compounds were tested against four different cell lines: HeLa, HEK 293, MDCK and CaCo. The cells were seeded in a 96 well plate and incubated until a confluence of 80% was achieved (under physiological conditions - 37°C, 5% CO2 and 95% humidity). The samples were tested by serial dilution in triplicates with starting concentration of 250 µg/mL. After 24 and 48 hours the survival of cells was evaluated by microscope and measured with Alamar blue. IC50 values were obtained from the calibration curves. […]
# heK-293 cell line = test: Cytotoxicity assay (Alamar blue), heK-293; assay type: cell-based; settings: Homo sapiens, HEK293; read-out: cell lines EC50, heK-293
# Experimental: as §3
# (§5) Screening of compounds were performed by Oxford Antibiotic Group, Austria. […]
# as §4
# MRSA [2] = test: Broth dilution MIC against MRSA with added metal cations; assay type: cell-based; settings: Staphylococcus aureus, addition of Fe, Ca, Mg and Zn at concentration as found in blood
# Experimental: (§6) As tetramic acids are well-known metal chelators,[1],[20] of interest was to investigate whether this loss of activity was due to metal chelation or plasma protein binding (PPB), specifically with human serum albumin (HSA).[17],[18] To answer this question, bicyclic tetramate 12a was tested against MRSA using a broth dilution assay, under standard conditions and with the addition of similar metal cations (Fe, Ca, Mg, and Zn) with concentration as that found in blood, respectively. […] Bicyclic tetramate 12a was also tested against MRSA using a broth dilution assay, under standard conditions but in the presence of one-third the serum albumin concentration as that found in human blood. […] A review has shown that PPB strongly correlates with increased hydrophobicity, and this might point to a problem with the tetramate class, which clearly depends upon hydrophobicity for their antibacterial activity, as noted above.[21]
# MDCK cell line = test: Cytotoxicity assay (Alamar blue), MDCK; assay type: cell-based; settings: read-out: cell lines EC50, MDCK
# Experimental: as §3, §5, §4
# MRSA [3] = test: Broth dilution MIC against MRSA in the presence of serum albumin; assay type: cell-based; settings: Staphylococcus aureus, one-third the serum albumin concentration found in human blood
# Experimental: as §6
# CaCo cell line = test: Cytotoxicity assay (Alamar blue), CaCo; assay type: cell-based; settings: Homo sapiens; read-out: cell lines EC50, CaCo
# Experimental: as §3, §5, §4
# E. coli = test: MIC determination by broth dilution assay against E. coli; assay type: cell-based
# Experimental: as §1, §2
# [4] = Staphylococcus aureus, MRSA, Table S6, read-out: MIC
# [5] = Staphylococcus aureus, MRSA, broth dilution, read-out: MIC against MRSA
# [6] = Staphylococcus aureus, MRSA, Table S5, against S. aureus, read-out: MIC
# [7] = Staphylococcus aureus, MRSA, Table 3, read-out: MIC(S. aureus)
SMILES,"MIC [1, 5] [µg/mL]","MIC [1, 6] [µg/mL]",MIC ([1]; Table S6) [µg/mL],other results
Cc1ccc([C@H]2O[C@@H](C(C)(C)C)N3C(=O)C(C(=O)NC45CC6CC(CC(C6)C4)C5)=C(O)[C@H]23)cc1 (mixture of isomers) [13a],3.9,,,"MIC [1, 4]: 3.9 µg/mL; MIC ([1]; Table S5, against S. aureus): 3.9 µg/mL"
CC(C)(C)[C@@H]1O[C@H](c2ccccc2)[C@H]2C(O)=C(C(=O)Nc3ccc([N+](=O)[O-])cc3)C(=O)N21 (racemic) [12d],3.9,3.9,3.9,antibacterial activity against MRSA (in words) [1]: good bioactivity
CC(C)(C)[C@@H]1O[C@H](c2ccc(F)cc2)[C@H]2C(O)=C(C(=O)NC34CC5CC(CC(C5)C3)C4)C(=O)N21 (mixture of isomers) [compound 20],1,,,"MIC [1, 4]: 1 µg/mL; MIC ([1]; Table S5, against S. aureus): 1.0 µg/mL"
CC(C)(C)[C@@H]1O[C@H](c2ccc(Cl)cc2)[C@H]2C(O)=C(C(=O)NC34CC5CC(CC(C5)C3)C4)C(=O)N21 (mixture of isomers) [compound 21],7.8,,,"MIC [1, 4]: 7.8 µg/mL; MIC ([1]; Table S5, against S. aureus): 7.8 µg/mL"
CC(C)(C)[C@@H]1O[C@H](c2ccccc2)[C@H]2C(O)=C(C(=O)NC34CC5CC(CC(C5)C3)C4)C(=O)N21 (mixture of isomers) [12a],0.25,0.25,0.25,"therapeutic ratio / selectivity for bacteria over the Hela cell line (Hela cell line; EC50 Hela cell line/MIC(S. aureus)): 26 fold; EC50 (Hela cell line): 7.8 µg/mL; EC50 (heK-293 cell line): 31.3 µg/mL; MIC (MRSA [2]): 0.24 µg/mL; MIC [1, 7]: 0.3 µg/mL; MIC ([1]; Staphylococcus aureus, MRSA, broth dilution assay, standard conditions (control of metal cation experiment), read-out: MIC against MRSA, standard conditions): 0.49 µg/mL; EC50 (MDCK cell line): 7.8 µg/mL; MIC (MRSA [3]): 7.81 µg/mL; EC50 (CaCo cell line): 15.6 µg/mL"
CC(C)(C)[C@@H]1O[C@H](c2ccccc2)[C@H]2C(O)=C(C(=O)Nc3ccc(C(F)(F)F)cc3Cl)C(=O)N21 (racemic) [12i],,0.49,0.49,antibacterial activity against MRSA (in words) [1]: high activities
CC(C)(C)[C@@H]1O[C@H](c2ccc(Br)cc2)[C@H]2C(O)=C(C(=O)NC34CC5CC(CC(C5)C3)C4)C(=O)N21 (mixture of isomers) [compound 22],0.49,,,"MIC [1, 4]: 0.49 µg/mL; MIC ([1]; Table S5, against S. aureus): 0.49 µg/mL"
CC(C)(C)[C@@H]1O[C@H](c2ccccc2)[C@H]2C(O)=C(C(=O)Nc3ccc(Br)cc3)C(=O)N21 (racemic) [12c],3.9,3.9,3.9,
CCOC(=O)C1=C(O)[C@@H]2[C@@H](c3ccc(C)cc3)O[C@@H](C(C)(C)C)N2C1=O [10b],,,,antibacterial activity against MRSA (in words) [1]: no activity; antibacterial activity against E. coli (in words) (E. coli): no activity
Cc1cc(F)ccc1NC(=O)C1=C(O)[C@@H]2[C@@H](c3ccccc3)O[C@@H](C(C)(C)C)N2C1=O (racemic) [12l],,1,1.0,antibacterial activity against MRSA (in words) [1]: high activities
CCOC(=O)C1=C(O)[C@@H]2[C@@H](c3ccc(F)cc3)O[C@@H](C(C)(C)C)N2C1=O (racemic) [10c],,,,"EC50 (Hela cell line): 31.3 µg/mL; EC50 (heK-293 cell line): 62.5 µg/mL; MIC [1, 7]: 31.3 µg/mL; MIC [1, 4]: 31.3 µg/mL; EC50 (MDCK cell line): 62.5 µg/mL; EC50 (CaCo cell line): 62.5 µg/mL"
CCOC(=O)C1=C(O)[C@@H]2[C@@H](c3ccc(Br)cc3)O[C@@H](C(C)(C)C)N2C1=O (racemic) [10e],,,,"EC50 (Hela cell line): 31.3 µg/mL; EC50 (heK-293 cell line): 62.5 µg/mL; MIC [1, 7]: 15.6 µg/mL; MIC [1, 4]: 15.6 µg/mL; EC50 (MDCK cell line): 62.5 µg/mL; EC50 (CaCo cell line): 62.5 µg/mL"
CC(C)(C)[C@@H]1O[C@H](c2ccccc2)[C@H]2C(O)=C(C(=O)Nc3ccc(Cl)cc3C(F)(F)F)C(=O)N21 (racemic) [12j],,3.9,3.9,
CC(C)(C)[C@@H]1O[C@H](c2ccccc2)[C@H]2C(O)=C(C(=O)Nc3ccc(C(F)(F)F)cc3)C(=O)N21 (racemic) [12e],1,1,1.0,
CC(C)(C)[C@@H]1O[C@H](c2ccccc2)[C@H]2C(O)=C(C(=O)Nc3ccc(C4CCCCC4)cc3)C(=O)N21 (racemic) [12s],1,1,1.0,
CCOC(=O)C1=C(O)[C@@H]2[C@@H](c3ccccc3)O[C@@H](C(C)(C)C)N2C1=O (racemic) [10a],,,,antibacterial activity against MRSA (in words) [1]: no activity; antibacterial activity against E. coli (in words) (E. coli): no activity
CCOC(=O)C1=C(O)[C@@H]2[C@@H](c3ccc(Cl)cc3)O[C@@H](C(C)(C)C)N2C1=O (racemic) [10d],,,,"EC50 (Hela cell line): 31.3 µg/mL; EC50 (heK-293 cell line): 31.3 µg/mL; MIC [1, 7]: 15.6 µg/mL; MIC [1, 4]: 15.6 µg/mL; EC50 (MDCK cell line): 62.5 µg/mL; EC50 (CaCo cell line): 31.3 µg/mL"
Cc1ccc([C@H]2O[C@@H](C(C)(C)C)N3C(=O)C(C(=O)Nc4ccc(Cl)cc4C)=C(O)[C@H]23)cc1 (racemic) [13b],1,,,"MIC [1, 4]: 1 µg/mL; MIC ([1]; Table S5, against S. aureus): 1.0 µg/mL"

# More lines, main results first:
"MIC [1, 5] [µg/mL]","MIC [1, 6] [µg/mL]",MIC ([1]; Table S6) [µg/mL],SMILES,other results
3.9,3.9,3.9,CCCCCCNC(=O)C1=C(O)[C@@H]2[C@@H](c3ccccc3)O[C@@H](C(C)(C)C)N2C1=O (racemic) [12p],
125,125,125,CC(C)(C)[C@@H]1O[C@H](c2ccccc2)[C@H]2C(O)=C(C(=O)NC3CCOCC3)C(=O)N21 (racemic) [12t],
7.8,7.8,7.8,CC(C)(C)[C@@H]1O[C@H](c2ccccc2)[C@H]2C(O)=C(C(=O)Nc3ccccc3)C(=O)N21 (racemic) [12b],
0.49,0.49,0.49,CCCCCCCCCCCCNC(=O)C1=C(O)[C@@H]2[C@@H](c3ccccc3)O[C@@H](C(C)(C)C)N2C1=O (racemic) [12r],
,3.9,3.9,CC(C)(C)NC(=O)C1=C(O)[C@@H]2[C@@H](c3ccccc3)O[C@@H](C(C)(C)C)N2C1=O (racemic) [12v],antibacterial activity against MRSA (in words) [1]: comparable activity with the hexyl 12p
0.49,0.49,0.49,CCCCCCCCCNC(=O)C1=C(O)[C@@H]2[C@@H](c3ccccc3)O[C@@H](C(C)(C)C)N2C1=O (racemic) [12q],
1,1,1.0,CC(C)(C)[C@@H]1O[C@H](c2ccccc2)[C@H]2C(O)=C(C(=O)NC3CCCCC3)C(=O)N21 (racemic) [12n],
0.49,0.49,0.49,CCCCCCc1ccc(NC(=O)C2=C(O)[C@@H]3[C@@H](c4ccccc4)O[C@@H](C(C)(C)C)N3C2=O)cc1 (racemic) [12m],
1,1,1.0,Cc1cc(Cl)ccc1NC(=O)C1=C(O)[C@@H]2[C@@H](c3ccccc3)O[C@@H](C(C)(C)C)N2C1=O (racemic) [12g],
15.6,15.6,15.6,CC(C)(C)[C@@H]1O[C@H](c2ccccc2)[C@H]2C(O)=C(C(=O)NCc3ccccc3)C(=O)N21 (racemic) [12u],
,3.9,3.9,Cc1ccc(NC(=O)C2=C(O)[C@@H]3[C@@H](c4ccccc4)O[C@@H](C(C)(C)C)N3C2=O)c(C)c1 (racemic) [12k],
,3.9,3.9,Cc1ccc(NC(=O)C2=C(O)[C@@H]3[C@@H](c4ccccc4)O[C@@H](C(C)(C)C)N3C2=O)c(Cl)c1 (racemic) [12h],
1,1,1.0,CC(C)(C)[C@@H]1O[C@H](c2ccccc2)[C@H]2C(O)=C(C(=O)NC3CCCCCC3)C(=O)N21 (racemic) [12o],
